# Measurements taken from patent US20240361324A1, “POINT OF SERVICE METHOD OF DETECTING, DIAGNOSING AND FOLLOWING CANCER AND OTHER PROLIFERATIVE CONDITIONS” (priority 2021, published 2024).
# “Also recorded” adds a separate entry of the source.
# Tests used:
# Format in all cases: cell-based, human
# OVCA cell lines [1] = test: MTT assay of OVCA cell proliferation; conditions: data not shown; for cell proliferation (MTT assay): all the cell lines, same doses as the p80 experiment
# Description: (§1) Rationale and Experiments: In order to assess the effects of various classes of chemotherapy on p80-containing OVCA cells and to elucidate the relationship between p80, EM, and OVCA proliferation, EM or tamoxifen or the NADPH-oxidase inhibitor diphenyleneiodonium treatment was carried out. […] The treatment was followed with Western blotting to determine the effect of each agent on p80 expression. To control for reduced cell numbers or changes in cell volume as confounding factors, results were calculated on the basis of p80 per mg protein or DNA in the cells.
# To further test the relationship between p80 and OVCA proliferation, OVCA cells were treated with EGF and measured proliferation (MTT assay) and the expression of p80 (Western Blotting). Again, results were calculated on a per mg protein or DNA basis to avoid confounding. […] (2) E-M/ECC's and their roles as specific antimicrotubular agents will be tested.
# p80 [2] = test: Western analysis of p80 expression in drug-treated SKOV3 cells; conditions: for expression of p80 (Western blotting): OVCA cells, calculated as p80 per mg protein or DNA; for expression of p80 (Western analysis): SKOV3, 24-hour treatment, compared to control DMSO-treated cells
# Description: FIG. 9. […] Rat brain extract was used as a positive control (lane e). MW=Molecular weight markers (High Range SDS-PAGE standard). Actin was detected as loading control.
# Western Blot Analysis: The cell monolayer was lysed with lysis buffer containing six protease inhibitors (Protease Cocktail; Roche), incubated on ice for 10 min, and scraped with a rubber policeman. Cell lysate was collected and centrifuged at 12,000× g for 30 min. Supernatants were saved for SDS-PAGE and Western blot analysis, and pellets were extracted by SDS-PAGE sample buffer (minus reducing reagent). The total amount of protein in each extract was determined by the bicinchoninic acid (BCA) method. SDS-PAGE was performed, loading the same amount of total protein in the same volume into each sample well, using commercially available precast 4-15% gradient SDS-polyacrylamide gels (Bio Rad). High range SDS-PAGE standard (Bio Rad) was run as a standard. After electrophoresis, proteins were transferred onto a PVDF membrane. After transfer, the membrane was incubated with primary antibody, then washed, and incubated with peroxidase-labeled second antibody. Signals were visualized on Hyperfilm-ECL by the ECL-reagents (Amersham).
# SDS-PAGE and Western Blot Analysis: The cell monolayer was lysed with lysis buffer containing 6 protease inhibitors (Boehringer-Mannheim). Cell lysate was collected by centrifugation after the supernatants were saved. The pellet was extracted by boiling with SDS-containing buffer. The total amount of protein in each extract was determined. SDS-PAGE was performed by loading the same amount of total protein into each sample well. After electrophoresis, proteins were electro-transferred onto a PVDF membrane. Then, the membrane was incubated with primary antibody, washed, and incubated with peroxidase conjugated horse anti-mouse IgG (H+L). Signals were developed with an enhanced luminescence reagent (ECL, Amersham) and visualized on Hyper ECL-Film. (Amersham). Signal density was measured and analyzed by a densitometer. Western analysis can furnish information on immunoreactivity and molecular size; therefore, this technique was often used for the first-line screening of the presence of p80. However, if there was any ambiguity about the cross-reactivity, the results were double checked with Northern blotting or RT-PCR with specific primers.
# as §1
# OVCA cell lines [3] = test: 3H-thymidine uptake in cultured OVCA cells; conditions: all OVCA cell lines; 1-100 μg/ml
# From the text: Culture of OVCA cell lines and cell cultures. Rationale: In order to determine the efficacy of inhibiting human OVCA cells with drugs, four extensively characterized OVCA cell lines, three in-house lines, DK2NMA, BIXLER, BIX3 (all courtesy of Drs. S. Chambers and B. Kacinski), (Peter B. Kaufman, William, Wu, Donghern Kim, Leland J. Cseke. Molecular Biology and Medicine. CRC Press inc., Boca Raton, Florida Chapter 12:289-304, 1995) and SKOV3, obtained from American Type Culture Collection, were established in mono-layer culture. Experiments: In preparation for drug treatment, cell suspensions were thor-oughly dispersed, precisely counted and then seeded into another flask at the desired cell den-sity. Conclusion: The cell lines were established, and test drugs shown to predictably affect the cells. Results were produced that meet stringent reliability criteria, including precision i.e., small variability between replicates.
# Inhibition of OVCA cell proliferation by EM (estrogen mustard). Rationale: Clini-cally, EM has modest systemic toxicity and has been partially effective in the treatment of advanced prostatic carcinoma. […] Therefore, the effect of EM on OVCA cells was studied. Experiments: 3H-thymidine uptake was used to test the effect of EM against cultured OVCA cells in a wide range of concentrations (1-100 μg/ml). […]
# OVCA cell lines [4] = test: Flow cytometry of the cell cycle distribution of OVCA; conditions: all OVCA cell lines; 24 hours treatment; 1-100 μgm/ml; compared to control DMSO-treated cells
# From the text: Effect of EM on the cell cycle of OVCA. Rationale: Since EM's antiproliferative activity could be due to the disruption of mitosis and other crucial microtubule-dependent cellular functions, flow cytometry was used to investigate the effect of EM on the cell cycle distribution of OVCA. Experiments: Following EM administration (1-100/ μgm/ml) the flasks were trypsinized and all cells subjected to flow cytometry in the Yale Cancer Center Core laboratory. […] Conclusions: (1) EM induced cell cycle synchronization at G2/M. This was consistent with an action on OVCA microtubule associated proteins (MAP's). (2) Synchronization in G2/M raised the possibility of radio-sensitization (Barnes WM. PCR amplification of up to 35-Kb DNA with high fidelity and high yield from lambda bacteriophage templates. Proc Natl Acad Sci USA March 15; 91 (6): 2216-20, 1994; Mandelkow E, Mandelkow E-M. Microtubules and microtubule-associated proteins. Current Opinion in Cell Biology 7:72-81, 1995.
# p80 [5] = test: Immunofluorescence staining of p80 in PMA-treated THP-1 cells; conditions: 10 ng/ml, 5 days
# Description: (§2) FIG. 11. (Top): Light microscopy of THP-1 cells after treatment of PMA. A. untreated THP-1 cells; B. THP-1 cells treated with 10 ng for five days. (Middle): Western blotting analysis of p80 in PMA-treated THP-1 cells. M: protein markers, Lane 1. SKOV3 (OVCA) as p80 positive control, Lane 2. Untreated THP-1 cells, supernatant from the cell lysate. Lane 3. Untreated THP-1 cell, pellet from the cell lysate. Lane 4. 5 day-PMA (10 ng/ml) treated THP-1 cells, supernatant from the cell lysate. Lane 5:5 day-PMA (10ng/ml) treated THP-1 cells, pellet from the cell lysate. Lane 6: human brain protein extract as 350 kDa MAP1a control. Lanes 7-12 are duplications of Lane 1-7. Note: Before PMA treatment there is a thick 80 kDa band in Lane 2; after 5 days of PMA treatment, the 80 kDa band became undetectable. (Bottom): IF straining of THP-1 cells after 5 days treatment with PMA. A. Untreated THP-1 cells; B. PMA (10 ng/ml) treated THP-1 cells.
# (§3) Terminal Differentiation of THP-1 leukemia cells was associated with decreased expression of p80. […] The slide was studied by a fluorescence microscope for the presence of the P80 and photographed. […] Before treatment with PMA, the cells were round with bright fluorescence (FIG. 11-a Bottom); after PMA treatment, the cells grew processes with no IF of P80 (FIG. 11b Bottom). […]
# p80 [6] = test: Western blotting of p80 in PMA-treated THP-1 cells; conditions: 10 ng/ml, 5 days
# Description: as §2, §3
# [7] = system: THP-1 promonocytic leukemia cell line; test: Cell morphology/differentiation of THP-1 leukemia cells after PMA; conditions: THP-1 cells; 10 ng/ml
# Description: as §2, §3
# p80 [8] = test: SDS-PAGE/Western blot of p80 in BIX3 OVCA cells after EGF treatment; conditions: per mg protein or DNA basis, compared to untreated control
# Description: FIG. 10. SDS-PAGE/Western blot analysis of p80 in BIX3 OVCA cells following treatment with EGF, (see text). The lanes are as follows: (a) protein standards, (b) control-untreated, (c) EGF-treated. The density of p80 expression was increased after EGF treatment. Actin was detected as loading control.
# Stimulation of expression of p80 by epidermal growth factor (EGF). […] To further test the relationship between p80 and OVCA proliferation, OVCA cells were treated with EGF and measured proliferation (MTT assay) and the expression of p80 (Western Blotting). Again, results were calculated on a per mg protein or DNA basis to avoid confounding. Findings: (1) Increasing doses of EGF (10-50 ng/ml) stimulated OVCA proliferation in comparison to untreated controls (data not shown). […] (2) E-M/ECC's and their roles as specific antimicrotubular agents will be tested. Alternative approaches, such as targeting this molecule by using antisense DNA/RNA to block its expression could be helpful in elucidating whether the expression of this protein is a cause or an effect of OVCA proliferation. Furthermore, the antisense approach may also lead to the development of a novel modality for OVCA therapy targeting p80.
Compound,cell proliferation (MTT assay) (OVCA cell lines [1]),expression of p80 (Western blotting) (p80 [2]),expression of p80 (Western analysis) (p80 [2]; 10 μM),further results
"c1ccc2c(c1)[I+]c1ccccc1-2 [DPI, diphenyleneiodonium]",significantly decreased,significantly inhibited,significant decreases,–
"C[C@]12CC[C@@H]3c4ccc(OC(=O)N(CCCl)CCCl)cc4CC[C@H]3[C@@H]1CC[C@@H]2O [EM, estrogen mustard]",significantly decreased,significantly inhibited,significant decreases,"3H-thymidine incorporation (OVCA cell lines [3]): marked, dose-dependent inhibition; percentages of cells in G2/M phase (OVCA cell lines [4]): significant increase"
"CCCCCCCCCCCCCC(=O)O[C@@H]1[C@@H](C)[C@@]2(O)[C@@H](C=C(CO)C[C@]3(O)C(=O)C(C)=C[C@@H]23)[C@@H]2C(C)(C)[C@]12OC(C)=O [PMA, phorbol myristic acetate]",–,–,–,immunofluorescence (IF) of p80 (p80 [5]): no IF of P80; p80 (80 kDa band) on Western blots (p80 [6]): disappeared; also recorded: undetectable; differentiation / cell morphology [7]: began to differentiate to monocytes/macrophages
"CC/C(=C(\c1ccccc1)c1ccc(OCCN(C)C)cc1)c1ccccc1 [TMX, tamoxifen]",significantly decreased,significantly inhibited,–,expression of p80 (Western analysis) (p80 [2]; 100 μM): significant decreases
"epidermal growth factor (NSDSECPLSHDGYCLHDGVCMYIEALDKYACNCVVGYIGERCQYRDLKWWELR; Epidermal growth factor; UniProt P01133 971-1023, looked up) [EGF, growth factor; ovarian cancer cells have EGF receptors]",–,–,–,"expression of p80 (Western blotting) (p80 [8]): increased significantly; OVCA proliferation (MTT assay) (OVCA cell lines [1]; 10-50 ng/ml, increasing doses, compared to untreated controls): stimulated"
